Values belong to the compound of their own block, whether it stands above or below them. Active and inactive are the calls of the source. No cut-off for these calls is given here.
Experiments:
HK-2 [1] = test: Protection against cisplatin-induced nephrotoxicity in human HK-2 cells preincubated with compound for 2 hrs followed by cisplatin induction and measured after 72 hrs by MTT assay; format: functional, cell-based; conditions: dose 1-10 µM, time 74.0 hrs
HK-2 [2] = test: Protection against cisplatin-induced nephrotoxicity in human HK-2 cells increase in viability at 10 uM preincubated with compound for 2 hrs followed by cisplatin induction and measured after 72 hrs by MTT assay (reference value: 45.1%); format: functional; conditions: time 74 hrs
HCT-116 = test: Cytotoxicity against human HCT-116 cells; format: functional, cell-based
Mus musculus [3] = test: Protection against cisplatin-induced nephrotoxicity in po dosed C57BL6/J mouse assessed as reduction in SCR level in kidney Preadministered with compound for 2 days followed by cisplatin addition on day 3 and measured 72 hrs post cisplatin administration; format: functional, organism-based; conditions: dose 25-100 mg/kg, time 5.0 day
HK-2 [4] = test: Upregulation of ATP7B mRNA level in human HK-2 cells at 2.5 to 10 uM by RT-qPCR analysis; format: functional, cell-based; conditions: dose 2.5-10 µM
HK-2 [5] = test: Protection against cisplatin-induced nephrotoxicity in human HK-2 cells assessed as cell viability at 5 uM preincubated with compound for 2 hrs followed by cisplatin induction and measured after 72 hrs by MTT assay (reference value: 45.1 +/- 3.2%); format: functional; conditions: time 74 hrs, read-out: Activity
HK-2 [6] = test: Protection against cisplatin-induced nephrotoxicity in human HK-2 cells at 5 to 10 uM preincubated with compound for 2 hrs followed by cisplatin induction and measured after 72 hrs by MTT assay; format: functional, cell-based; conditions: dose 5-10 µM, time 74.0 hrs
Cell membrane = test: Induction of mitochondrial membrane potential loss in human HK-2 cells assessed as increase in ATP5A1 expression by Western blot analysis; format: cell membranes; conditions: dose 2.5-10 µM
HK-2 [7] = test: Protection against cisplatin-induced nephrotoxicity in human HK-2 cells assessed as cell viability at 10 uM preincubated with compound for 2 hrs followed by cisplatin induction and measured after 72 hrs by MTT assay (reference value: 45.1 +/- 3.2%); format: functional; conditions: time 74 hrs, read-out: Activity
[8] = Cytotoxicity against human HK-2 cells incubated for 72 hrs by MTT assay; format: toxicity, cell-based
[9] = AUC (0 to t) in ICR mouse 1 mg/kg, iv measured for 24 hrs by HPLC-MS analysis; format: ADME, organism-based; conditions: in vivo
[10] = Cmax in ICR mouse 50 mg/kg, po measured for 24 hrs by HPLC-MS analysis; format: ADME, organism-based; conditions: in vivo
Mus musculus [11] = test: Protection against cisplatin-induced nephrotoxicity in C57BL6/J mouse assessed as reduction in BUN level in kidney at 100 mg/kg, po preadministered with compound for 2 days followed by cisplatin addition on day 3 and measured 72 hrs post cisplatin administration; format: functional, organism-based; conditions: time 5.0 day
[12] = MRT (0 to infinity) in ICR mouse 1 mg/kg, iv measured for 24 hrs by HPLC-MS analysis; format: ADME, organism-based; conditions: in vivo
[13] = MRT (0 to t) in ICR mouse 50 mg/kg, po measured for 24 hrs by HPLC-MS analysis; format: ADME, organism-based; conditions: in vivo
[14] = Acute toxicity in C57BL/6J mouse assessed as liver damage at 1 g/Kg, po measured for 2 weeks by H and E staining based analysis; format: organism-based; conditions: in vivo, 1000 mg/kg, 336 h
[15] = Acute toxicity in C57BL/6J mouse assessed as spleen damage at 1 g/Kg, po measured for 2 weeks by H and E staining based analysis; format: organism-based; conditions: in vivo, 1000 mg/kg, 336 h
[16] = Acute toxicity in C57BL/6J mouse assessed as ovary damage at 1 g/Kg, po measured for 2 weeks by H and E staining based analysis; format: organism-based; conditions: in vivo, 1000 mg/kg, 336 h
[17] = Acute toxicity in C57BL/6J mouse assessed as stomach damage at 1 g/Kg, po measured for 2 weeks by H and E staining based analysis; format: organism-based; conditions: in vivo, 1000 mg/kg, 336 h
[18] = AUC (0 to infinity) in ICR mouse 1 mg/kg, iv measured for 24 hrs by HPLC-MS analysis; format: ADME, organism-based; conditions: in vivo
[19] = Acute toxicity in C57BL/6J mouse assessed as small intestine damage at 1 g/Kg, po measured for 2 weeks by H and E staining based analysis; format: organism-based; conditions: in vivo, 1000 mg/kg, 336 h
[20] = MRT (0 to infinity) in ICR mouse 50 mg/kg, po measured for 24 hrs by HPLC-MS analysis; format: ADME, organism-based; conditions: in vivo
[21] = MRT (0 to t) in ICR mouse 1 mg/kg, iv measured for 24 hrs by HPLC-MS analysis; format: ADME, organism-based; conditions: in vivo
[22] = Terminal half life in ICR mouse 50 mg/kg, po measured for 24 hrs by HPLC-MS analysis; format: ADME, organism-based; conditions: in vivo, read-out: beta t1/2 (converted)
[23] = AUC (0 to t) in ICR mouse 50 mg/kg, po measured for 24 hrs by HPLC-MS analysis; format: ADME, organism-based; conditions: in vivo
Mus musculus [24] = test: Protection against cisplatin-induced nephrotoxicity in C57BL6/J mouse assessed as reduction in SCR level in kidney at 100 mg/kg, po preadministered with compound for 2 days followed by cisplatin addition on day 3 and measured 72 hrs post cisplatin administration; format: functional, organism-based; conditions: time 5.0 day
[25] = Acute toxicity in C57BL/6J mouse assessed as animal death at 1 g/Kg, po measured for 2 weeks; format: organism-based; conditions: in vivo, 1000 mg/kg, 336 h
[26] = Acute toxicity in C57BL/6J mouse assessed as brain damage at 1 g/Kg, po measured for 2 weeks by H and E staining based analysis; format: organism-based; conditions: in vivo, 1000 mg/kg, 336 h
[27] = Acute toxicity in C57BL/6J mouse assessed as abnormal behavior at 1 g/Kg, po measured for 2 weeks; format: organism-based; conditions: in vivo, 1000 mg/kg, 336 h
[28] = AUC (0 to infinity) in ICR mouse 50 mg/kg, po measured for 24 hrs by HPLC-MS analysis; format: ADME, organism-based; conditions: in vivo
[29] = Acute toxicity in C57BL/6J mouse assessed as kidney damage at 1 g/Kg, po measured for 2 weeks by H and E staining based analysis; format: organism-based; conditions: in vivo, 1000 mg/kg, 336 h
[30] = Clearance in ICR mouse 1 mg/kg, iv measured for 24 hrs by HPLC-MS analysis; format: ADME, organism-based; conditions: in vivo
[31] = Acute toxicity in C57BL/6J mouse assessed as heart damage at 1 g/Kg, po measured for 2 weeks by H and E staining based analysis; format: organism-based; conditions: in vivo, 1000 mg/kg, 336 h
[32] = Oral bioavailability in ICR mouse 50 mg/kg measured for 24 hrs by HPLC-MS analysis; format: ADME, organism-based; conditions: in vivo
HK-2 [33] = test: Protection against cisplatin-induced nephrotoxicity in human HK-2 cells at 1 to 10 uM preincubated with compound for 2 hrs followed by cisplatin induction and measured after 72 hrs by MTT assay; format: functional, cell-based; conditions: dose 1-10 µM, time 74.0 hrs
[34] = Cmax in ICR mouse 1 mg/kg, iv measured for 24 hrs by HPLC-MS analysis; format: ADME, organism-based; conditions: in vivo
[35] = Acute toxicity in C57BL/6J mouse assessed as lung damage at 1 g/Kg, po measured for 2 weeks by H and E staining based analysis; format: organism-based; conditions: in vivo, 1000 mg/kg, 336 h
[36] = Terminal half life in ICR mouse 1 mg/kg, iv measured for 24 hrs by HPLC-MS analysis; format: ADME, organism-based; conditions: in vivo, read-out: beta t1/2 (converted)
[37] = Volume of distribution in ICR mouse 1 mg/kg, iv measured for 24 hrs by HPLC-MS analysis; format: ADME, organism-based; conditions: in vivo

- Activity (Cell membrane): Active
SMILES: COc1c(C=O)c(OC)c(C(=O)c2ccccc2)c2c1CC1CC/C(C)=C/CC(C)(C)/C=C/CC1(C)O2 (stereo not drawn)
- Activity (HK-2 [1]): Dose-Dependent Effect
- Activity (HK-2 [2]): >90%
- Activity (HCT-116): Active
- Activity (Mus musculus [3]): Dose-Dependent Effect
- Activity (HK-2 [4]): Active
- viability at 5 µM (HK-2 [5]): 82.8%
- Activity (HK-2 [6]): Active
- viability at 10 µM (HK-2 [7]): 90.6%
- IC50 at 72 h [8]: > 10 µM

SMILES: COc1c(CO)c(OC)c(C(=O)c2ccccc2)c2c1C[C@H]1CC/C(C)=C/CC(C)(C)/C=C/C[C@]1(C)O2
- AUC(0-t) at 24 h [9]: 137 ng·h/mL
- Cmax [10]: 266 ng/mL
- Activity (Mus musculus [11]): Active
- MRT inf [12]: 2.22 h
- MRT last at 24 h [13]: 2.29 h
- Activity [14]: Non-Toxic
- Activity (HCT-116): Active
- Activity [15]: Non-Toxic
- Activity [16]: Non-Toxic
- Activity [17]: Non-Toxic
- Activity (Mus musculus [3]): Dose-Dependent Effect
- AUC(0-inf) [18]: 146 ng·h/mL
- Activity [19]: Non-Toxic
- MRT inf [20]: 3.21 h
- MRT last at 24 h [21]: 1.59 h
- half-life [22]: 2.5 h
- Activity (HK-2 [4]): Active
- AUC(0-t) at 24 h [23]: 783 ng·h/mL
- Activity (Mus musculus [24]): Active
- Activity [25]: Non-Toxic
- Activity [26]: Non-Toxic
- Activity [27]: Non-Toxic
- AUC(0-inf) [28]: 869 ng·h/mL
- Activity [29]: Non-Toxic
- clearance [30]: 114 mL/min/kg
- Activity [31]: Non-Toxic
- bioavailability [32]: 11.9%
- Activity (HK-2 [33]): Active
- Cmax [34]: 485 ng/mL
- Activity [35]: Non-Toxic
- half-life [36]: 2.47 h
- Activity (Cell membrane): Active
- Vd [37]: 24.4 L/kg
